Peptide text beside a SMILES is read from it. * marks the point of attachment. Cbz = O=C(OCc1ccccc1)*; CH2F = FC*
Key:
Format in all cases: cell-based, Human
[1] = tested on: HL-60 cells; assay: Labeling of untreated and CPT-treated HL-60 cells with FLISP (FFCK, FLCK) or FLICA reagents, fluorescence measured by LSC; conditions: for binding of the ligand by cells treated with CPT vs untreated cells (in words): HL-60, 3 h CPT, combined with PI
Experimental: Preparation of Reagents: Fluorescent Inhibitors of Serine Proteases (FLISP) reagents, 5(6)-Carboxyfluoresceinyl-L-phenylalanylchloromethyl ketone (FFCK) and 5(6)-carboxyfluoresceinyl-L-leucylchloromethyl ketone (FLCK) were dissolved initially in dimethyl sulfoxide (DMSO; Sigma) to yield a 10 mM concentration. Aliquots were made from this stock solution and stored frozen at −20° C. protected from light. This reagent stock was then diluted directly into the cell culture media to give a 1× working reagent concentration of 10 μM. Dilution of the reagent into aqueous (cell culture) media is done just prior to cell exposure to preserve the labile chloromethyl ketone reactivity of FLISP reagent.
Fluorescent inhibitors of caspases (FLICA) reagents, namely the fluorescein labeled VAD-FMK (FAM-VAD-FMK) and sulforhodamine labeled VAD-FMK (SR-VAD-FMK) (Immunochemistry Technologies; Bloomington, Minn.) were both designed to detect the presence of active caspases within apoptotic cells. These inhibitors were dissolved in DMSO to obtain a 150× concentrated stock solution. Aliquots of these solutions were stored at −20 °C in the dark. Prior to use, a 30× working solution of either FAM-VAD-FMK or SR-VAD-FMK was prepared by diluting the stock solution 1:5 in phosphate buffered saline (PBS) and mixing until the solution become clear. The 30× working solution was diluted 1:30 cell culture media to give a final 1× working reagent concentration of 10 μM.
(§1) Cells: Human promyelocytic leukemic HL-60 cells were obtained from American Type Culture Collection (ATCC; Rockville, Md.). […]
Cell staining and fluorescence measurement by LSC: The HL-60 cells from the untreated or CPT treated cultures were centrifuged (200 g, 5 min) and resuspended in PBS at approximately 10^4 cells per 5 ml volume. […]

[2] = tested on: HL-60 cells; assay: Dual labeling of CPT-treated HL-60 cells with SR-VAD-FMK and FFCK or FLCK (fluorescence microscopy / LSC); conditions: CPT-treated HL-60, dual labeling
Experimental: Cell staining and fluorescence measurement by LSC: The HL-60 cells from the untreated or CPT treated cultures were centrifuged (200 g, 5 min) and resuspended in PBS at approximately 10^4 cells per 5 ml volume. Cells were then attached electrostatically to microscope slides as described before (Bedner et al., Exp Cell Res., 2000, 259:308-313; Smolewski et al., Cytometry, 2001, 44:73-82). Briefly, the attachment was achieved by the incubation (15 min) of cells suspended in serum-free PBS in shallow (<1 mm depth; 1.5×1.5 cm) wells on horizontally placed microscope slides that were rinsed in 100% ethanol and air dried prior to use, at 100% humidity. The electrostatically attached cells remain viable, exclude such dyes as trypan blue and propidium iodide (PI), and have unchanged morphology for several hours (Bedner et al., Exp Cell Res., 2000, 259:308-313). After the cells became attached, PBS was removed from the wells and was replaced by 150 μL of the culture medium containing 10% FCS. FLISP staining solutions were prepared by diluting 5 μL of the 10 mM FFCK or FLCK stock solution into 5 mL of culture medium yielding a final FLISP concentration 10 μM. The medium from above the cells on the slide was then replaced with 150 μL of this staining solution. A polyethylene foil (2.5×2.5 cm) was positioned over the staining solution to prevent drying. The slides were subsequently incubated for 1 h at 37° C. in a closed box with wet tissue to additionally prevent drying. […] The slides were placed on the motorized stage of a laser scanning microscope (LSC; Kamentsky, L. A., Methods Cell Biol, 2001, 63:51-87; Darzynkiewicz et al., Exp Cell Res, 1999, 249:1-12) for fluorescence measurement. Cell fluorescence was then measured using a 488 nm excitation laser line and recording integral and maximal pixel intensities of green FFCK or FLCK. FLICA staining was measured under the same conditions as FLISP staining. Fluorescence can also be measured by flow cytometer and fluorescence microscopy. […]

[3] = tested on: HL-60 cells; assay: Pretreatment of HL-60 cells with unlabeled protease inhibitors during CPT induction of apoptosis, then binding of FAM-VAD-FMK, FFCK or FLCK measured by LSC; conditions: HL-60, CPT 3 h in presence of the unlabeled inhibitor; mean (SE) of three experiments
Experimental: Unlabeled (cold) N-tosyl-phenylalanylchloromethyl ketone (TPCK) and N-tosyl-lysylchloromethyl keytone (TLCK) were obtained from Sigma Chemical Co.; concentrated solutions at 10 mM were freshly prepared in DMSO. Further dilutions were made in tissue culture media.
The non-fluorescent poly-caspase inhibitor Z-VAD-FMK was obtained from Enzyme Systems Products. A 20 mM stock solution of Z-VAD-FMK was made in DMSO (Sigma) and the inhibitor was then diluted in culture media to obtain the final 50 μM concentration in the cultures.
as §1
Cell staining and fluorescence measurement by LSC: The HL-60 cells from the untreated or CPT treated cultures were centrifuged (200 g, 5 min) and resuspended in PBS at approximately 10^4 cells per 5 ml volume. […] The slides were placed on the motorized stage of a laser scanning microscope (LSC; Kamentsky, L. A., Methods Cell Biol, 2001, 63:51-87; Darzynkiewicz et al., Exp Cell Res, 1999, 249:1-12) for fluorescence measurement. Cell fluorescence was then measured using a 488 nm excitation laser line and recording integral and maximal pixel intensities of green FFCK or FLCK. FLICA staining was measured under the same conditions as FLISP staining. Fluorescence can also be measured by flow cytometer and fluorescence microscopy. […]

Molecule	binding of the ligand by cells treated with CPT vs untreated cells (in words) [1]	fluorescence of labeled cells (intensity and distribution, in words) [2]	fluorescence intensity of FLCK labeled cells, greater compared to FFCK labeled cells ([1]; identical settings of the photomultiplier sensitivity)	percent decrease in frequency of FAM-VAD-FMK labeled cells (caspase activation) vs CPT without unlabeled inhibitor [3] [%]
5(6)-Carboxyfluoresceinyl-L-phenylalanylchloromethyl ketone [FFCK]	induced binding	strong		
5(6)-carboxyfluoresceinyl-L-leucylchloromethyl ketone [FLCK]	induced binding	faint and more uniformly distributed	approximately 60%	
COC(=O)C[C@H](NC(=O)[C@H](C)NC(=O)[C@@H](NC(=O)OCc1ccccc1)C(C)C)C(=O)CF [Z-VAD-FMK] (Cbz-Val-Ala-Asp(OMe)-CH2F)				95.0
Sulforhodaminyl-L-valylalanylaspartylflyoromethyl ketone [SR-VAD-FMK, reference compound]		uniformly dispersed		
